Active and inactive are the calls of the source. No cut-off for these calls is given here.
Assays:
Influenza A virus [1] = test: Antiviral activity against Influenza A virus A/WSN/33(H1N1) infected in MDCK cells assessed as reduction in virus induced cytopathic effect measured 48 hrs post infection by MTT assay; type: functional, organism-based
[2] = Cytotoxicity against MDCK cells assessed as reduction in cell viability incubated for 48 hrs by MTT assay; type: toxicity, cell-based, Canis lupus familiaris; details: dog
[3] = Selectivity index, ratio of CC50 for cytotoxicity against MDCK cells to EC50 for antiviral activity against Influenza A virus A/WSN/33(H1N1) infected in MDCK cells; type: toxicity, cell-based; details: dog, read-out: Ratio CC50/EC50
[4] = target: Polymerase acidic protein (Influenza A virus (A/Puerto Rico/8/1934(H1N1)), UniProt P03433); test: Inhibition of Influenza A virus N-terminal domain of PA endonuclease using 6FAM-TGGCAATATCAGCTCCACA-MGBNFQ as fluorescent substrate by FRET analysis
Influenza A virus [5] = test: Antiviral activity against Influenza A virus A/WSN/33(H1N1) infected in human A549 cells assessed as reduction in nucleoprotein expression at 5 to 20 uM measured 24 hrs post infection by Western blot analysis; type: functional, organism-based; details: dose 5-20 µM
Influenza A virus [6] = test: Antiviral activity against Influenza A virus A/WSN/33(H1N1) infected in human A549 cells assessed as reduction in nucleoprotein mRNA expression at 5 to 20 uM measured 24 hrs post infection by qRT-PCR analysis; type: functional, organism-based; details: dose 5-20 µM
Influenza A virus [7] = test: Antiviral activity against Influenza A virus A/WSN/33(H1N1) infected in MDCK cells assessed as reduction in nucleoprotein […] expression at 20 uM measured after 0 to 10 hrs by Western blot based time-of-addition assay; type: functional, organism-based; details: time 0-10 hrs
Influenza A virus [8] = test: Antiviral activity against Influenza A virus A/WSN/33(H1N1) infected in MDCK cells assessed as inhibition of virus replication and translation by measuring reduction in nucleoprotein […] expression at 20 uM measured after 2 to 8 hrs by Western blot based time-of-addition assay; type: functional, organism-based; details: time 2-8 hrs
Influenza A virus [9] = test: Antiviral activity against Influenza A virus A/WSN/33(H1N1) infected in MDCK cells assessed as distribution of PAN protein expression in nucleus and cytoplasm measured 24 hrs post infection by DAPI staining based microscopic analysis; type: functional, organism-based

Compound	EC50 (Influenza A virus [1]) [µM]	CC50 at 48 h [2] [µM]	selectivity ratio [3]	other results
CCCOC(=O)[C@@H]1Cc2cc(O)c(O)cc2[C@H](Cc2ccc(O)c(O)c2)N1C=O	7.72	75.1	9.7	
O=CN1[C@H](C(=O)Oc2ccc(Cl)cc2)Cc2cc(O)c(O)cc2[C@@H]1Cc1ccc(O)c(O)c1	3.86	57.6	15	
CCN(CC)C(=O)[C@@H]1Cc2cc(O)c(O)cc2[C@H](Cc2ccc(O)c(O)c2)N1C=O	> 10	> 100		
COc1ccc(NC(=O)[C@@H]2Cc3cc(O)c(O)cc3[C@H](Cc3ccc(O)c(O)c3)N2C=O)cc1	6.12	50.9	8.3	
O=CN1[C@H](C(=O)Nc2ccccc2)Cc2cc(O)c(O)cc2[C@@H]1Cc1ccc(O)c(O)c1	> 10	> 100		
COC(=O)[C@@H]1Cc2cc(O)c(O)cc2[C@H](Cc2ccc(O)c(O)c2)N1C=O	7.04	> 100	> 14.2	IC50 [4]: 0.68 µM
O=CN1[C@H](C(=O)Oc2ccc(Br)cc2)Cc2cc(O)c(O)cc2[C@@H]1Cc1ccc(O)c(O)c1	3.23	32.1	9.8	
O=CN1[C@H](C(=O)Oc2ccccc2Cl)Cc2cc(O)c(O)cc2[C@@H]1Cc1ccc(O)c(O)c1	4.5	> 100	> 22.2	Activity (Influenza A virus [5]): Active; Activity (Influenza A virus [6]): Active; Activity (Influenza A virus [7]): Active; Activity (Influenza A virus [8]): Active; Activity (Influenza A virus [9]): Active; IC50 [4]: 0.28 µM
COC(=O)[C@@H]1Cc2cc(O)c(O)cc2[C@H](Cc2ccc(O)c(O)c2)N1C(=O)CCl	6.49	34.5	5.3	
COC(=O)[C@@H]1Cc2cc(O)c(O)cc2[C@H](Cc2ccc(O)c(O)c2)N1C(C)=O	7.65	> 100	> 13.1	IC50 [4]: 0.53 µM
CN(C)C(=O)[C@@H]1Cc2cc(O)c(O)cc2[C@H](Cc2ccc(O)c(O)c2)N1C=O	> 10	> 100		
O=CN1[C@H](C(=O)Oc2ccccc2F)Cc2cc(O)c(O)cc2[C@@H]1Cc1ccc(O)c(O)c1	5.23	61.2	11.7	IC50 [4]: 0.37 µM
O=CN1[C@H](C(=O)Nc2ccc(Cl)cc2)Cc2cc(O)c(O)cc2[C@@H]1Cc1ccc(O)c(O)c1	7.89	> 100	> 12.7	
O=CN1[C@H](C(=O)Oc2ccccc2Br)Cc2cc(O)c(O)cc2[C@@H]1Cc1ccc(O)c(O)c1	3.21	57.1	17.8	IC50 [4]: 0.26 µM
CN1CCc2cc(O)c(O)cc2C1Cc1ccc(O)c(O)c1 (racemic)	> 20	> 100		IC50 [4]: 1.88 µM
CN(Cc1ccccc1)C(=O)[C@@H]1Cc2cc(O)c(O)cc2[C@H](Cc2ccc(O)c(O)c2)N1C=O	8.68	91.9	10.6	
O=CN1[C@H](C(=O)NCc2ccco2)Cc2cc(O)c(O)cc2[C@@H]1Cc1ccc(O)c(O)c1	> 10	> 100		

Compound	EC50 (Influenza A virus [1]) [µM]	CC50 at 48 h [2] [µM]	selectivity ratio [3]	other results
O=CN1[C@H](C(=O)Oc2ccccc2)Cc2cc(O)c(O)cc2[C@@H]1Cc1ccc(O)c(O)c1	7.6	77.7	10.2	IC50 [4]: 0.45 µM
O=C(O[C@@H]1Cc2c(O)cc(O)cc2O[C@@H]1c1cc(O)c(O)c(O)c1)c1cc(O)c(O)c(O)c1 [EPIGALOCATECHIN GALLATE]				IC50 [4]: 5.86 µM
O=CN1[C@H](C(=O)O)Cc2cc(O)c(O)cc2[C@@H]1Cc1ccc(O)c(O)c1	> 20	> 100		
O=CN1[C@H](C(=O)Oc2cccc(F)c2)Cc2cc(O)c(O)cc2[C@@H]1Cc1ccc(O)c(O)c1	4.72	55.6	11.8	
CCOC(=O)[C@@H]1Cc2cc(O)c(O)cc2[C@H](Cc2ccc(O)c(O)c2)N1C=O	6.88	> 100	> 14.5	
O=CN1[C@H](C(=O)Oc2c(Cl)cccc2Cl)Cc2cc(O)c(O)cc2[C@@H]1Cc1ccc(O)c(O)c1	2.57	24.8	9.6	
CCCC(=O)N1[C@H](C(=O)OC)Cc2cc(O)c(O)cc2[C@@H]1Cc1ccc(O)c(O)c1	> 10	> 100		
O=CN1[C@H](C(=O)NCc2ccccc2)Cc2cc(O)c(O)cc2[C@@H]1Cc1ccc(O)c(O)c1	> 10	> 100		
O=CN1[C@H](C(=O)Oc2ccc(Cl)cc2Cl)Cc2cc(O)c(O)cc2[C@@H]1Cc1ccc(O)c(O)c1	3.76	21.4	5.7	
COC(=O)[C@@H]1Cc2cc(O)c(O)cc2[C@H](Cc2ccc(O)c(O)c2)N1C(=O)C(F)(F)F	6.76	76.4	11.3	IC50 [4]: 0.5 µM
CCC(=O)N1[C@H](C(=O)OC)Cc2cc(O)c(O)cc2[C@@H]1Cc1ccc(O)c(O)c1	> 10	> 100		
COc1ccc(CNC(=O)[C@@H]2Cc3cc(O)c(O)cc3[C@H](Cc3ccc(O)c(O)c3)N2C=O)cc1	> 10	> 100		
COC(=O)[C@@H]1Cc2cc(O)c(O)cc2[C@H](Cc2ccc(O)c(O)c2)N1C(=O)CNC(C)=O	> 20			
O=CN1[C@H](C(=O)NCc2cccs2)Cc2cc(O)c(O)cc2[C@@H]1Cc1ccc(O)c(O)c1	> 10	> 100		
CCC(CC)[C@H](NC(C)=O)[C@@H]1[C@H](O)[C@@H](C(=O)O)C[C@H]1NC(=N)N [PERAMIVIR ANHYDROUS]		> 100	> 19	
O=CN1[C@H](C(=O)Oc2cccc(Cl)c2)Cc2cc(O)c(O)cc2[C@@H]1Cc1ccc(O)c(O)c1	6.09	84.3	13.8	

Reference: ChEMBL document CHEMBL5143520, “Discovery and optimization of new 6, 7-dihydroxy-1, 2, 3, 4-tetrahydroisoquinoline derivatives as potent influenza virus PAN inhibitors” (Eur J Med Chem, 2022)
